Tests used:
Format in all cases: cell-based, human
[1] = system: USF-MC1 cells; assay: Beta-hexosaminidase (histamine) release from USF-MC1 mast cells
Procedure: (§1) FIGS. 3A-D show graphs of histamine (beta hexosaminidase) release from USF-MC1 cells compared to LAD2 cells after one hour (FIGS. 3A and 3B, respectively), and after six hours (FIGS. 3D and 3C, respectively). USF-MC1 cells (2×10^6 per well) were coated with biotinylated human myeloma IgE for 18 hours. Cells were then washed and challenged with streptavidin (100 ng/ml), ionomycin (5 μM), ANP (1 μM), ANP+KP2, ANP+Isatin. After 30 minutes, supernatants and cell lysates were developed with […] and optical density (OD) was read at 405 nm. Percent release is expressed as a ratio of supernatant over total (supernatant+lysate). […] In addition, ANP-induced histamine release is attenuated by an NPRA receptor antagonist (isatin).
In order to activate mast cells via the FceR1 receptor, cells were cultured for 18 hours with biotinylated human myeloma IgE (100 ng/ml)(Sigma). Cells were then challenged with streptavidin (100 ng/ml)(Sigma), ionomycin (5 μM), or atrial natriuretic peptide (ANP) (100 ng/ml). After 30 minutes, supernatants and cell pellets were harvested. Substrate solution (p-Nitrophenyl-N-acetyl-B-D-glucosaminide Calbiochem, 0.13% in sodium citric solution) was added to either the cell supernatants or pellets and incubated for 1.5 hr. 0.4M glycine solution was then added to stop the reaction. The optical density (OD) was read at 405 nm. Percent release was expressed as a ratio of supernatant over total (supernatant+lysate). Percent release of beta-hexosadminidase by SV40 LT-transfected USF-MC1 cells and non-transfected USF-MC1 cells is shown in FIG. 5C.
USF-MC1 cells (2×10^6 per well) were coated with biotinylated human myeloma IgE for 18 hours. Cells were then washed and challenged with streptavidin (100 ng/ml), ionomycin (5 μM), ANP (1 μM), ANP+KP2, ANP+Isatin. After 30 minutes, supernatants and cell lysates were developed with […] and optical density (OD) was read at 405 nm. Percent release is expressed as a ratio of supernatant over total (supernatant+lysate). […]

[2] = system: LAD2 cells; assay: Beta-hexosaminidase (histamine) release from LAD2 mast cells; conditions: ANP challenge plus isatin
Procedure: as §1
In order to activate mast cells via the FceR1 receptor, cells were cultured for 18 hours with biotinylated human myeloma IgE (100 ng/ml)(Sigma). Cells were then challenged with streptavidin (100 ng/ml)(Sigma), ionomycin (5 μM), or atrial natriuretic peptide (ANP) (100 ng/ml). After 30 minutes, supernatants and cell pellets were harvested. […] The optical density (OD) was read at 405 nm. Percent release was expressed as a ratio of supernatant over total (supernatant+lysate). […]

[3] = system: USF-MC1 cells; assay: Leukotriene C4 release (ELISA) from USF-MC1 mast cells; conditions: ANP challenge plus isatin
Procedure: (§2) TNF-a (R&G Systems), IL-17 (eBioscience), and Leukotrine C4 (Cayman Chemical) protein concentrations in mast cell supernatants were determined using ELISA kits from each respective manufacturer. Each ELISA was performed according to the manufacturer's instructions.

[4] = system: LAD2 cells; assay: Leukotriene C4 release (ELISA) from LAD2 mast cells; conditions: ANP challenge plus isatin
Procedure: as §2

| Structure (SMILES) | histamine (beta hexosaminidase) release after challenge ([1]; ionomycin 5 μM or ANP 1 μM, 30 minutes) | effect on ANP-induced histamine release ([1]; ANP 1 μM + isatin, 30 minutes) | effect on ANP-induced release of B-Hex ([1]; ANP challenge plus isatin) | effect on ANP-induced release of B-Hex [2] | effect on ANP-induced release of LTC4 [3] | effect on ANP-induced release of LTC4 [4] |
| --- | --- | --- | --- | --- | --- | --- |
| C[C@H](CCC(=O)O)C[C@H](C)C[C@H](C)C(=O)/C=C(\O)[C@H](C)C[C@H](C)C/C=C/[C@@H](C)[C@@H](O)[C@@H](C)[C@@H](O)C[C@@H]1CC[C@@](C)([C@H]2CC[C@@](C)([C@@H](C)O)O2)O1 [ionomycin] | releases histamine within minutes |  |  |  |  |  |
| O=C1Nc2ccccc2C1=O [isatin] |  | attenuated | reduced to baseline | reduced to baseline | reduced to baseline | reduced to baseline |

Reference: patent publication US9096829B2, “Human mast cell line and uses thereof” (UNIVERSITY OF SOUTH FLORIDA, priority 2009, dated 2015)
